Source: publication PMC7129916 (Clinical Microbiology and Infection, 2015)
Converted amounts (≈) assume the structure as drawn. Where two headings read alike, the source gives them in different places.

Columns and labels:
[1] = format: in vivo, human; settings: after 6 months
invasive GAS isolates = format: cell-based, S. pyogenes
group B streptococci = format: cell-based
M. catarrhalis (Mc) = experiment: microbe, parasite or virus in culture; format: cell-based; settings: Moraxella catarrhalis
S. pneumoniae (Sp) = experiment: microbe, parasite or virus in culture; format: cell-based; settings: Streptococcus pneumoniae
H. influenzae (Hi) = experiment: microbe, parasite or virus in culture; format: cell-based; settings: Haemophilus influenzae
S. pneumoniae [2] = test system: S. pneumoniae
[3] = test system: viridans group streptococci; experiment: organism not typed; format: cell-based
H. influenzae = experiment: microbe, parasite or virus in culture; format: cell-based
M. catarrhalis [4] = experiment: microbe, parasite or virus in culture; format: cell-based
[5] = test system: beta1-integrin in human tendon cells
S. pneumoniae [6] = experiment: microbe, parasite or virus in culture; format: cell-based; settings: for susceptible (%): DIN breakpoints
M. catarrhalis [7] = experiment: microbe, parasite or virus in culture; format: cell-based; settings: Moraxella catarrhalis
[8] = test system: viridans Streptococci (S. mitis, S. oralis); format: cell-based; settings: susceptible strains, salivary concentrations
[9] = test system: S. pneumoniae with reduced susceptibility to ciprofloxacin; experiment: microbe, parasite or virus in culture; format: cell-based

In the case of `CN(C)[C@@H]1C(O)=C(C(N)=O)C(=O)[C@@]2(O)C(O)=C3C(=O)c4c(O)cccc4[C@@](C)(O)[C@H]3C[C@@H]12` [tetracycline], the “mean per cent reduction, inflammatory lesions” value [1] is reported as 56%, the “mean per cent reduction, non-inflammatory lesions” value [1] is reported as 45% and the resistant isolates (invasive GAS isolates) is reported as 50%.

For teicoplanin, the “susceptibility of all strains” value (group B streptococci) was “susceptible”.

In the case of `CC1(C)S[C@@H]2[C@H](NC(=O)[C@H](N)c3ccccc3)C(=O)N2[C@H]1C(=O)O` [ampicillin], the “susceptibility of all strains” value (group B streptococci) is reported as “susceptible”, the MIC50 (M. catarrhalis (Mc)) is reported as 1 µg/mL (≈ 2.86 µM) and the MIC90 (M. catarrhalis (Mc)) is reported as 4 µg/mL (≈ 11.4 µM). It also gave an MIC90 (S. pneumoniae (Sp)) of 0.25 µg/mL (≈ 0.715 µM) and an MIC50 (H. influenzae (Hi)) of 0.5 µg/mL (≈ 1.43 µM).

For `CC[C@H]1OC(=O)[C@H](C)[C@@H](O[C@H]2C[C@@](C)(OC)[C@@H](O)[C@H](C)O2)[C@H](C)[C@@H](O[C@@H]2O[C@H](C)C[C@H](N(C)C)[C@H]2O)[C@](C)(O)C[C@@H](C)C(=O)[C@H](C)[C@@H](O)[C@]1(C)O` [erythromycin], the “%I” value (S. pneumoniae [2]; 2002 (n = 103)) was 0%, the “%R” value (S. pneumoniae [2]; 2002 (n = 103)) was 43.1% and the “%S” value (S. pneumoniae [2]; 2002 (n = 103)) was 56.9%. The “%I” value (S. pneumoniae [2]; 2003 (n = 137)) was 1.4%, the “%R” value (S. pneumoniae [2]; 2003 (n = 137)) was 38.8% and the “%S” value (S. pneumoniae [2]; 2003 (n = 137)) was 59.8%. For the same compound, the “%I” value (S. pneumoniae [2]; 2004 (n = 110)) was 0%, the “%R” value (S. pneumoniae [2]; 2004 (n = 110)) was 35.5% and the “%S” value (S. pneumoniae [2]; 2004 (n = 110)) was 64.5%. The MIC ([3]; S. sanguis mef(A)) was 4 µg/mL (≈ 5.45 µM).

Work on `CO/N=C(\C(=O)N[C@@H]1C(=O)N2C(C(=O)O)=C(CSc3nc(=O)c(=O)[nH]n3C)CS[C@H]12)c1csc(N)n1` [ceftriaxone] yielded an MIC50 (M. catarrhalis (Mc)) of 0.5 µg/mL (≈ 0.902 µM), an MIC90 (M. catarrhalis (Mc)) of 1 µg/mL (≈ 1.8 µM) and an MIC50 (S. pneumoniae (Sp)) of 0.03 µg/mL (≈ 0.0541 µM). It also gave an MIC90 (S. pneumoniae (Sp)) of 0.25 µg/mL (≈ 0.451 µM) and an MIC90 (H. influenzae (Hi)) of 0.03 µg/mL (≈ 0.0541 µM).

With amoxicillin/clavulanate the “susceptible (%)” value (H. influenzae) was 87.9% and the “susceptible (%)” value (M. catarrhalis [4]) was 99.1%.

Work on `O=C(O)c1cn(C2CC2)c2cc(N3CCNCC3)c(F)cc2c1=O` [ciprofloxacin] yielded an MIC50 (M. catarrhalis (Mc)) of 0.06 µg/mL (≈ 0.181 µM), an MIC90 (M. catarrhalis (Mc)) of 0.06 µg/mL (≈ 0.181 µM) and an MIC50 (S. pneumoniae (Sp)) of 1 µg/mL (≈ 3.02 µM). The MIC90 (S. pneumoniae (Sp)) was 2 µg/mL (≈ 6.04 µM) and the “amount of beta1-integrin vs untreated control” value [5] was “significant decrease”.

With `CN[C@H](CC(C)C)C(=O)N[C@H]1C(=O)N[C@@H](CC(N)=O)C(=O)N[C@H]2C(=O)N[C@H]3C(=O)N[C@H](C(=O)N[C@H](C(=O)O)c4cc(O)cc(O)c4-c4cc3ccc4O)[C@H](O)c3ccc(c(Cl)c3)Oc3cc2cc(c3O[C@@H]2O[C@H](CO)[C@@H](O)[C@H](O)[C@H]2O[C@H]2C[C@](C)(N)[C@H](O)[C@H](C)O2)Oc2ccc(cc2Cl)[C@H]1O` [vancomycin] the “susceptibility of all strains” value (group B streptococci) was “susceptible”, the “%I” value (S. pneumoniae [2]) was 0% and the “%R” value (S. pneumoniae [2]) was 0%. The “%S” value (S. pneumoniae [2]) was 100%.

For quinupristin/dalfopristin, the “susceptibility of all strains” value (group B streptococci) was “susceptible”.

Work on `C[C@H]1c2cccc(O)c2C(=O)C2=C(O)[C@]3(O)C(=O)C(C(N)=O)=C(O)[C@@H](N(C)C)[C@@H]3[C@@H](O)[C@@H]21` [doxycycline] yielded an MIC90 (M. catarrhalis (Mc)) of 0.25 µg/mL (≈ 0.563 µM) and an MIC90 (S. pneumoniae (Sp)) of 8 µg/mL (≈ 18 µM).

In the case of `CC[C@H]1OC(=O)[C@H](C)[C@@H](O[C@H]2C[C@@](C)(OC)[C@@H](O)[C@H](C)O2)[C@H](C)[C@@H](O[C@@H]2O[C@H](C)C[C@H](N(C)C)[C@H]2O)[C@](C)(OC)C[C@@H](C)C(=O)[C@H](C)[C@@H](O)[C@]1(C)O` [clarithromycin], the “%I” value (S. pneumoniae [2]; 2002 (n = 103)) is reported as 0%, the “%S” value (S. pneumoniae [2]; 2002 (n = 103)) is reported as 58.8% and the “%I” value (S. pneumoniae [2]; 2003 (n = 137)) is reported as 0%. For the same compound, the “%R” value (S. pneumoniae [2]; 2003 (n = 137)) was 38.7%, the “%S” value (S. pneumoniae [2]; 2003 (n = 137)) was 61.3% and the “%I” value (S. pneumoniae [2]; 2004 (n = 110)) was 1%. The “%R” value (S. pneumoniae [2]; 2004 (n = 110)) was 34.5%, the “%S” value (S. pneumoniae [2]; 2004 (n = 110)) was 64.5% and the “susceptible (%)” value (S. pneumoniae [6]) was 85.7%. The “susceptible (%)” value (H. influenzae) was 4.5%.

For `C[C@H]1COc2c(N3CCN(C)CC3)c(F)cc3c(=O)c(C(=O)O)cn1c23` [levofloxacin], the “susceptibility of all strains” value (group B streptococci) was “susceptible”, the MIC50 (M. catarrhalis (Mc)) was 0.03 µg/mL (≈ 0.083 µM) and the MIC90 (M. catarrhalis (Mc)) was 0.06 µg/mL (≈ 0.166 µM). For the same compound, the MIC50 (S. pneumoniae (Sp)) was 1 µg/mL (≈ 2.77 µM), the MIC90 (S. pneumoniae (Sp)) was 1 µg/mL (≈ 2.77 µM) and the “amount of beta1-integrin vs untreated control” value ([5]; 3 mg/l, 1-4 days) was “no effect”. For the same compound, the MIC50 (M. catarrhalis [7]) was at most 0.03 µg/mL, the MIC (M. catarrhalis [7]; read-out: MIC 10» (second value)) was 1 µg/mL (≈ 2.77 µM) and the time to eradication [8] was 12 to 24 h. The “%I” value (S. pneumoniae [2]; 2002 (n = 103)) was 3%, the “%R” value (S. pneumoniae [2]; 2002 (n = 103)) was 1% and the “%S” value (S. pneumoniae [2]; 2002 (n = 103)) was 96%. The “%I” value (S. pneumoniae [2]; 2003 (n = 137)) was 0.7%, the “%R” value (S. pneumoniae [2]; 2003 (n = 137)) was 1.5% and the “%S” value (S. pneumoniae [2]; 2003 (n = 137)) was 97.8%. For the same compound, the “%I” value (S. pneumoniae [2]; 2004 (n = 110)) was 0%, the “%R” value (S. pneumoniae [2]; 2004 (n = 110)) was 0% and the “%S” value (S. pneumoniae [2]; 2004 (n = 110)) was 100%. The MIC90 (S. pneumoniae [6]; n = 426) was 1 µg/mL (≈ 2.77 µM), the MIC50 ([9]; Streptococcus pneumoniae) was 0.5 µg/mL (≈ 1.38 µM) and the MIC90 ([9]; Streptococcus pneumoniae) was 1 µg/mL (≈ 2.77 µM). The MIC90 ([9]; ciprofloxacin MIC ≥8 mg/L) was 8, the MIC50 (H. influenzae (Hi)) was 0.03 µg/mL (≈ 0.083 µM) and the MIC90 (H. influenzae (Hi)) was 0.03 µg/mL (≈ 0.083 µM).

For `CO/N=C1\CN(c2nc3c(cc2F)c(=O)c(C(=O)O)cn3C2CC2)CC1CN` (stereo not drawn) [gemifloxacin], the MIC50 (M. catarrhalis [7]) was at most 0.12 µg/mL.

For `CO/N=C(\C(=O)N[C@@H]1C(=O)N2C(C(=O)O)=C(COC(C)=O)CS[C@H]12)c1csc(N)n1` [cefotaxime], the “%I” value (S. pneumoniae [2]; 2002 (n = 103)) was 3.8%, the “%R” value (S. pneumoniae [2]; 2002 (n = 103)) was 1% and the “%S” value (S. pneumoniae [2]; 2002 (n = 103)) was 95.2%. For the same compound, the “%I” value (S. pneumoniae [2]; 2003 (n = 137)) was 4.4%, the “%R” value (S. pneumoniae [2]; 2003 (n = 137)) was 0.6% and the “%S” value (S. pneumoniae [2]; 2003 (n = 137)) was 95%. For the same compound, the “%I” value (S. pneumoniae [2]; 2004 (n = 110)) was 3.8%, the “%R” value (S. pneumoniae [2]; 2004 (n = 110)) was 0% and the “%S” value (S. pneumoniae [2]; 2004 (n = 110)) was 96.2%.

With Quinupristin-Dalfopristin the “%I” value (S. pneumoniae [2]; 2002 (n = 103)) was 5.8%, the “%R” value (S. pneumoniae [2]; 2002 (n = 103)) was 0% and the “%S” value (S. pneumoniae [2]; 2002 (n = 103)) was 94.2%. For the same compound, the “%I” value (S. pneumoniae [2]; 2003 (n = 137)) was 0%, the “%R” value (S. pneumoniae [2]; 2003 (n = 137)) was 0% and the “%S” value (S. pneumoniae [2]; 2003 (n = 137)) was 100%. The “%I” value (S. pneumoniae [2]; 2004 (n = 110)) was 1%, the “%R” value (S. pneumoniae [2]; 2004 (n = 110)) was 0% and the “%S” value (S. pneumoniae [2]; 2004 (n = 110)) was 99%.

With `CO/N=C(\C(=O)N[C@@H]1C(=O)N2C(C(=O)O)=C(COC(N)=O)CS[C@H]12)c1ccco1` [cefuroxime] the MIC50 (M. catarrhalis (Mc)) was 1 µg/mL (≈ 2.36 µM), the MIC90 (S. pneumoniae (Sp)) was 1 µg/mL (≈ 2.36 µM) and the MIC50 (H. influenzae (Hi)) was 1 µg/mL (≈ 2.36 µM).

In the case of `CC1(C)S[C@@H]2[C@H](NC(=O)Cc3ccccc3)C(=O)N2[C@H]1C(=O)O` [penicillin], the “susceptibility of all strains” value (group B streptococci) is reported as “susceptible”, the MIC50 (M. catarrhalis (Mc)) is reported as 64 µg/mL (≈ 191 µM) and the MIC90 (M. catarrhalis (Mc)) is reported as 64 µg/mL (≈ 191 µM). The MIC50 (S. pneumoniae (Sp)) was 0.03 µg/mL (≈ 0.0897 µM), the MIC90 (S. pneumoniae (Sp)) was 0.5 µg/mL (≈ 1.5 µM) and the “%I” value (S. pneumoniae [2]; 2002 (n = 103)) was 31.1%. The “%R” value (S. pneumoniae [2]; 2002 (n = 103)) was 22.3%, the “%S” value (S. pneumoniae [2]; 2002 (n = 103)) was 46.6% and the “%I” value (S. pneumoniae [2]; 2003 (n = 137)) was 55.5%. The “%R” value (S. pneumoniae [2]; 2003 (n = 137)) was 5%, the “%S” value (S. pneumoniae [2]; 2003 (n = 137)) was 39.5% and the “%I” value (S. pneumoniae [2]; 2004 (n = 110)) was 30%. The “%R” value (S. pneumoniae [2]; 2004 (n = 110)) was 11%, the “%S” value (S. pneumoniae [2]; 2004 (n = 110)) was 59% and the “susceptible (%)” value (S. pneumoniae [6]) was 93.3%. The “susceptible (%)” value (H. influenzae) was 1.0%, the MIC50 (H. influenzae (Hi)) was 1 µg/mL (≈ 2.99 µM) and the MIC90 (H. influenzae (Hi)) was 64 µg/mL (≈ 191 µM). For the same compound, the “susceptible (%)” value (M. catarrhalis [4]) was 9.8%.

In the case of `CC(=O)NC[C@H]1CN(c2ccc(N3CCOCC3)c(F)c2)C(=O)O1` [linezolid], the “%I” value (S. pneumoniae [2]) is reported as 0%, the “%R” value (S. pneumoniae [2]) is reported as 0% and the “%S” value (S. pneumoniae [2]) is reported as 100%. The MIC [3] was 0.5 µg/mL (≈ 1.48 µM).
